Assay results reported in US7387779B2, “Anti-angiogenic proteins and fragments and methods of use thereof” (Beth Israel Deaconess Medical Center, priority 1998, dated 2008).

B1: Tum-5-125-C-A: Tumstatin-44-131 with cysteine at position 125 mutated to alanine (SEQ ID NO:34) (protein)
chain: FSFLFVQGNQRAHGQDLGTLGSCLQRFTTMPFLFCNVNDVCNFASRNDYSYWLSTPALMPMNMAPITGRALEPYISRCTVAEGPAIAI
modifications: Tumstatin-5-125-C-A (amino acids 45-132 of SEQ ID NO10; alanine has been substituted for the cysteine residue at position 125 of the full-length Tumstatin molecule)

What was measured:
C-PAE cells [1] = experiment: Annexin V-FITC apoptosis assay; format: cell-based, bovine; conditions: 5 μg/ml Arresten, 40 ng/ml TNFα
Description: Fifty thousand C-PAE cells were added to each well of a 6-well tissue culture plate in DMEM supplemented with 10% FBS for 12 hours. Fresh medium together and either 5 μg/ml Arresten or 40 ng/ml TNFα (positive control) was added at 2, 4 and 6 hour time points. Control wells received an equal of volume of PBS. Detached cells and adherent cells were pooled together and centrifuged at 1500 rpm. Cells were washed with binding buffer (Clontech, Palo Alto, Calif., USA), and phosphatidyl-serine (PS) externalization, an indicator of apoptosis, was measured by labeling with FITC-labeled annexin V (Clontech) according to manufacturer's instructions. Annexin-FITC labeled cells were counted using a FACStar Plus flow cytometer (Becton-Dickinson, Waltham, Mass., USA). For each treatment, 10,000 cells were counted and stored. […] Relative to controls, the percentage of annexin-V-stained (apoptotic) cells increased to about 27% at 2 hours, and near 20% at 4 and 6 hours for the positive control, TNFα. For Arresten-treated cells, the percentage of apoptotic cells was about 18% at 2 hours, and about 23% at 4 and 6 hours.
Annexin V-FITC Labeling. In order to establish apoptosis as the potential mode of action for Canstatin, Annexin V-FITC was used to label externalized phosphatidylserine (PS), to assess apoptotic cells. 0.5×10^6 C-PAE cells, PC-3, 786-O and HEK 293 cells were added to each well of a 6 well tissue culture plate in 10% FBS supplemented DMEM (BioWhittaker, Walkersville, Md., USA) overnight. The next day, fresh medium was added to all wells together with 40 ng/ml TNF-α (positive control) or 15 μg/ml Canstatin. Control cells received an equal volume of PBS. After 24 hours of treatment, medium containing detached cells was collected and attached cells were trypsinized and combined with detached cells and centrifuged at 3,000×g. Cells were then washed and phosphatidyl-serine externalization (an early apoptotic indicator) was measured by labeling with FITC-labeled annexin V (Clontech, Palo Alto, Calif., USA) according to the manufacturer's instructions. Annexin V-FITC-labeled cells were counted using a FAC Star Plus flow cytometer (Becton-Dickenson, Waltham, Mass., USA). For each treatment 15,000 cells were counted and stored in listmode.
C-PAE cells (0.5×10^6 per well) were seeded onto a 6-well plate in 10% FCS supplemented DMEM. The next day, fresh medium containing 10% FCS was added with either 80 ng/ml of TNF-α (positive control) or Tumstatin ranging from 0.02 to 20 μg/ml. Control cells received an equal volume of PBS. After 18 hours of treatment, medium containing floating cells was collected, and attached cells were trypsinized and centrifuged together with floating cells at 3,000×g. The cells were then washed in PBS and resuspended in binding buffer (10 mM HEPES/NaOH, pH 7.4, 140 mM NaCl, 2.5 mM CaCl2). Annexin V-FITC (Clontech, Palo Alto, Calif., USA) was added to a final concentration of 150 ng/ml, and the cells were incubated in the darkness for 10 minutes. The cells were washed again in PBS and resuspended in binding buffer. Annexin V-FITC labeled cells were counted using a FACStar Plus flow cytometer (Becton-Dickinson, Waltham, Mass., USA). For each treatment, 15,000 cells were counted and stored in listmode.
Apoptosis was measured by Annexin V-FITC assay, using the ApoAlert kit (Clontech, Palo Alto, Calif., USA). Propidium iodide was used to stain the nuclei of cells that had died by ways other than apoptosis.
The assay was performed as described above, by treating C-PAE cells with Tumstatin-44-131 for 18 hours. Control cells received PBS.

Caspase-3 in C-PAE cells [2] = experiment: Caspase-3 assay; format: cell-based, bovine; conditions: TNF-α 80 ng/ml
Description: Tumstatin also altered cell morphology of C-PAE cells as monitored by phase contrast microscopy. After treating cells with 20 μg/ml of Tumstatin in the presence of 10% FCS for 24 hours on fibronectin-coated plates, the typical morphological features of apoptotic cells, membrane blebbing, cytoplasmic shrinkage, and chromatin condensation could be observed. […] Caspase-3 assay: Caspase-3 (CPP32) is an intracellular protease activated at the early stage of apoptosis, and initiates cellular breakdown by degrading structural and DNA repair proteins (Casciola-Rosen, L. et al., 1996, J. Exp. Med. 183:1957-64; Salvesen, G. S. et al., 1997, Cell 91:443-46). The protease activity of Caspase-3 was measured spectrophotometrically by detection of the chromophore (p-nitroanilide) cleaved from the labeled substrate (DEVD-pNA). C-PAE cells or PC-3 cells (0.5×10^6 per well) were plated onto a 6-well plate precoated with fibronectin (10 μg/ml) in DMEM supplemented with 10% FCS, and incubated overnight. The next day, the medium was replaced with DMEM containing 2% FCS and then incubated overnight at 37° C. Then cells were then stimulated with bFGF (3 ng/ml) in DMEM supplemented with 2% FCS, and also containing either TNF-α (80 ng/ml, positive control) or Tumstatin (10 μg/ml), and incubated for 24 hours. Controls received PBS buffer. After 24 hours, the supernatant cells were collected, and attached cells were trypsinized and combined with the supernatant cells. Cells were counted and resuspended in cell lysis buffer (Clontech) at a concentration of 4×10^7 cells/ml. The rest of the protocol followed the manufacturer's instructions (Clontech). A specific inhibitor of Caspase-3, DEVD-fmk (Asp-Glu-Val-Asp-fluoromethyl ketone) was used to confirm the specificity of the assay. The absorbance was measured in a microplate reader (Bio-Rad, Hercules, Calif., USA) at 405 nm. The assay was repeated three times for each cell type.
Apoptosis was also evaluated by measuring Caspase-3 activity as described in Example 27, above. The results are shown in FIG. 35, which is a histogram showing Caspase-3 activity as a measure of absorbance at OD405 (y-axis) of C-PAE cells treated (x-axis) with 5 μg/ml Tum-1, Tum-2, Tum-3 or Tum-4, or 80 ng/ml TNF-α or PBS buffer (control).
Caspase-3 activity was also assayed as described above. DEVD-fmk, a specific caspase-3 inhibitor, was used as an internal control to show specificity of Tumstatin-44-131. TNF-α (80 ng/ml) was used as a positive control. The experiments were repeated three times.
The protease activity of Caspase-3 in cells treated with T3 peptide was measured spectrophotometrically by detection of the chromophore (p-nitroanilide) cleaved from the labeled substrate (DEVD-pNA). […] In PC-3 nonendothelial cells, there was no difference in Caspase-3 activity between control treatments and T3 peptide-treated cells.

Caspase-3 in C-PAE cells [3] = experiment: Caspase-3 assay; format: cell-based, bovine; conditions: 20 μg/ml Tumstatin; TNF-α positive control
PC-3 tumors = experiment: PC-3 xenograft in athymic nude NCRNU mice (Example 46); format: in vivo; conditions: 1 mg/kg i.p. b.i.d., 20 days
Description: Tumstatin-44-131 was also tested for its ability to suppress tumor growth. Male athymic nude NCRNU mice, of 5-6 weeks of age and about 25 g, were implanted with […] approximately 2×10^6 PC-3 (prostate cancer carcinoma) cells into the dorsal subcutis. […] The tumors were allowed to grow to about 50 mm^3, and animals were then pair-matched into groups of 6 mice. Initial doses of protein or vehicle (PBS, control) were given on the day of pair-matching (Day 1). Tumstatin-44-131, Tum-5-125-C-A, or human endostatin in sterile PBS was intraperitoneally injected daily b.i.d. at doses ranging from 1 to 20 mg/kg for 20 days. Control animals received injection of PBS vehicle. In one treatment, continuous subcutaneous delivery of Tumstatin-44-131 was done using surgically implanted Alzet mini-pumps. The mice were weighed twice weekly, and tumor measurements were taken, starting on Day 1. Estimated mean tumor volumes were calculated, and at Day 21, the mice were weighed, sacrificed, and their tumors excised and examined by light microscopy and CD31 immunostaining. The mean treated tumor weight was divided by the mean control tumor weight was subtracted from one, and expressed as a percentage to give the tumor growth inhibition for each group.

C-PAE cells [4] = experiment: Cell cycle analysis (propidium iodide, flow cytometry); format: cell-based, bovine
Description: To further evaluate the mechanism of T3 peptide on endothelial cell proliferation, the effect of T3 peptide on cell cycle progression was analyzed. In the growth arrested and contact inhibited cells (0 hour), 4.1% of cells were in S phase. […] This was true even at a maximal dosage of 100 μg/ml. The effect of the T3 peptide was dose-dependent, however, with the percentage of cells in S phase at 21.4% at 10 μg/ml, and 20.5% at 25 μg/ml. The percentage of cells in G0/G1 phase was 88.3% at 0 hour, 53.4% for the bFGF control, and 57.6%, 57.6% and 71.0% for treatments with T1, T6 and T3 peptide, respectively. […] Apoptotic Activity: Peptides T2, T3, T4, T5 and T6 (10 μg/ml concentration) were tested for their effect of viability of C-PAE cells using the MTT assay, as described in Examples 32 and 36 above. The results are shown in FIG. 43D, which is a histogram showing cell viability as measured at OD595 (y-axis), and treatments with the synthetic peptides (x-axis). […] TNF-α (100 ng/ml) was used to serve as a positive control in inducing endothelial cell apoptosis.
The effect of Tumstatin-44-131 and Tum-5-125-C-A on the cell cycle were assayed similarly to Example 4 above. Briefly, C-PAE cells were growth arrested by contact inhibition for 48 hours. The cells, at 10^5 cells per well, were then harvested and plated into a 12-well plate coated with fibronectin in 5% FCS and either recombinant Tumstatin-44-131 or Tum-5-125-C-A. After 21 hours, the cells were harvested and fixed in 70% ice-cold ethanol. The fixed cells were rehydrated a room temperature for 30 minutes in PBS containing 2% FCS and 0.1% Tween-20, centrifuged and resuspended in 0.5 ml of the same buffer. RNase (5 μg/ml) digestion was done at 37° C. for one hour, followed by staining with propidium iodide (5 μg/ml). The cells were then counted using an EPICS XL-MCL flow cytometer (Beckman-Coulter Instruments, Fullerton, Calif., USA).

Goodpasture autoantibody = experiment: Reactivity with Goodpasture autoantibody (western blotting); format: binding, human
Source text: Goodpasture syndrome is an autoimmune disease characterized by pulmonary hemorrhage and/or rapidly progressing glomerulonephritis, which are caused by the disruption of glomerular and alveolar basement membranes through immune injury associated with autoantibody activity against α3(IV) NC1. Recently, the most probable disease-related pathogenic epitope was identified in the N-terminal portion (Kalluri, R. et al., 1996, J. Biol. Chem. 271:9062-8; Hellmark, T. et al., 1999, Kidney Int. 55:938-44), and was then further confined within the N-terminal 40 amino acids (Hellmark, T. et al., 1999, J. Biol. Chem. 274:25862-8; Netzer, K. O. et al., 1999, J. Biol. Chem. 274:11267-74). The N-terminal Tumstatin-44-131 consists of residues 44-131 of Tumstatin, which is outside of the Goodpasture autoepitope. To further confirm that Tumstatin-44-131 would not be detected by Goodpasture autoantibody, antisera from patients with Goodpasture was used for western blotting.

DU-145 cells = experiment: MTT cell viability assay; format: cell-based; conditions: 0-50 μg/ml
Description: (§1) Cell viability was measured by MTT assay, as described above.
(§2) The effects of Tumstatin-44-131 and Tum-5-125-C-A on cell viability of C-PAE cells were not seen in control PC-3 and DU-145 cells, as shown in FIGS. 52C and 52D. […] The activity of Tumstatin-44-131 is therefore specific to endothelial cells.

PC-3 cells = experiment: MTT cell viability assay; format: cell-based, human; conditions: 0-50 μg/ml
Description: as §1, §2

Molecule | percentage of annexin-V-stained (apoptotic) cells (C-PAE cells [1]; 4 and 6 hours) | percentage of annexin-V-stained (apoptotic) cells (C-PAE cells [1]; 2 hours) | fold increase in Caspase-3 activity (Caspase-3 in C-PAE cells [2]; 10 μg/ml E. Coli-expressed Tumstatin-44-131) | fold increase in Caspase-3 activity (Caspase-3 in C-PAE cells [2]; 50 μg/ml T3 peptide) | fold increase in Caspase-3 activity (Caspase-3 in C-PAE cells [3]) | tumor growth inhibition (PC-3 tumors) | cell cycle arrest compared with Tumstatin-44-131 (C-PAE cells [4]) | detection by antisera / autoantibodies from patients with Goodpasture syndrome (Goodpasture autoantibody) | effect on viability of DU-145 cells (DU-145 cells) | effect on viability of PC-3 cells (PC-3 cells)
TNF-α [reference compound] | ~20% | about 27% | 4.5 fold | 4.5 fold | 1.7 fold | – | – | – | – | –
B1 | – | – | – | – | – | 92.0% | equivalent to treatment with Tumstatin-44-131 | failed to detect | not seen | not seen
